Measured values taken from PubChem BioAssay AID248 (DTP/NCI, 2004).
Several values for one entry are separate records, joined by “and”; a condition that tells them apart may be missing. Equal values may be shown once. Toxic doses and inconclusive results are not listed. No stated cut-off is given here; in the data, active means T/C of 150% or more; inactive means T/C below 125%.

Test system: L1210 leukemia ip in BDF1 mice, survival T/C
Assay: NCI In Vivo Anticancer Drug Screen. Data for tumor model L1210 Leukemia (intraperitoneal) in B6D2F1 (BDF1) mice
Settings: endpoint: mean survival time, higher = longer survival
Method in brief: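 Ratio derived from survival: compound-dosed mice over vehicle-dosed mice, all bearing a transplantable tumor.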

[1] = dose: 50.0 mg/kg/injection, schedule: Q01DX009 (ip), vehicle: Klucel (hydroxypropylcellulose) (HPC)
[2] = dose: 75.0 mg/kg/injection, schedule: Q01DX001 (ip), vehicle: Klucel (hydroxypropylcellulose) (HPC)
[3] = dose: 100.0 mg/kg/injection, schedule: Q04DX003 (ip), vehicle: Klucel (hydroxypropylcellulose) (HPC)
[4] = dose: 150.0 mg/kg/injection, schedule: Q01DX001 (ip), vehicle: Klucel (hydroxypropylcellulose) (HPC)
[5] = dose: 100.0 mg/kg/injection, schedule: Q01DX009 (ip), vehicle: Klucel (hydroxypropylcellulose) (HPC)
[6] = dose: 200.0 mg/kg/injection, schedule: Q01DX009 (ip), vehicle: Klucel (hydroxypropylcellulose) (HPC)
[7] = dose: 400.0 mg/kg/injection, schedule: Q01DX009 (ip), vehicle: Klucel (hydroxypropylcellulose) (HPC)
[8] = dose: 200.0 mg/kg/injection, schedule: Q04DX003 (ip), vehicle: Klucel (hydroxypropylcellulose) (HPC)
[9] = dose: 100.0 mg/kg/injection, schedule: Q04DX003 (ip), vehicle: saline with Tween-80
[10] = dose: 200.0 mg/kg/injection, schedule: Q04DX003 (ip), vehicle: saline with Tween-80
[11] = dose: 400.0 mg/kg/injection, schedule: Q04DX003 (ip), vehicle: saline with Tween-80

Measured: T/C

O=C(CCCN1CCC(O)(c2cccc(C(F)(F)F)c2)CC1)c1ccc(F)cc1
inactive: dose: 0.04 mg/kg/injection, schedule: Q03HX024 (ip), vehicle: Klucel (hydroxypropylcellulose) (HPC) 102 % of control | dose: 0.09 mg/kg/injection, schedule: Q03HX024 (ip), vehicle: Klucel (hydroxypropylcellulose) (HPC) 107 % of control | dose: 0.19 mg/kg/injection, schedule: Q03HX024 (ip), vehicle: Klucel (hydroxypropylcellulose) (HPC) 105 % of control | dose: 0.39 mg/kg/injection, schedule: Q03HX024 (ip), vehicle: Klucel (hydroxypropylcellulose) (HPC) 107 % of control | dose: 0.78 mg/kg/injection, schedule: Q03HX004 (ip), vehicle: Klucel (hydroxypropylcellulose) (HPC) 96 % of control | dose: 0.78 mg/kg/injection, schedule: Q03HX024 (ip), vehicle: Klucel (hydroxypropylcellulose) (HPC) 107 % of control | dose: 1.56 mg/kg/injection, schedule: Q01DX009 (ip), vehicle: Klucel (hydroxypropylcellulose) (HPC) 111 % of control | dose: 1.56 mg/kg/injection, schedule: Q03HX004 (ip), vehicle: Klucel (hydroxypropylcellulose) (HPC) 91 % of control | dose: 1.56 mg/kg/injection, schedule: Q03HX024 (ip), vehicle: Klucel (hydroxypropylcellulose) (HPC) 97 % of control | dose: 2.0 mg/kg/injection, schedule: Q01DX009 (ip), vehicle: Klucel (hydroxypropylcellulose) (HPC) 100 % of control | dose: 3.12 mg/kg/injection, schedule: Q01DX009 (ip), vehicle: Klucel (hydroxypropylcellulose) (HPC) 107 % of control and 122 % of control | dose: 3.12 mg/kg/injection, schedule: Q03HX024 (ip), vehicle: Klucel (hydroxypropylcellulose) (HPC) 100 % of control and 86 % of control | dose: 3.12 mg/kg/injection, schedule: Q04DX003 (ip), vehicle: Klucel (hydroxypropylcellulose) (HPC) 91 % of control and 101 % of control | dose: 4.0 mg/kg/injection, schedule: Q01DX009 (ip), vehicle: Klucel (hydroxypropylcellulose) (HPC) 92 % of control | dose: 6.25 mg/kg/injection, schedule: Q01DX001 (ip), vehicle: Klucel (hydroxypropylcellulose) (HPC) 106 % of control | dose: 6.25 mg/kg/injection, schedule: Q01DX009 (ip), vehicle: Klucel (hydroxypropylcellulose) (HPC) 110 % of control | dose: 6.25 mg/kg/injection, schedule: Q04DX003 (ip), vehicle: Klucel (hydroxypropylcellulose) (HPC) 100 % of control and 102 % of control and 108 % of control | dose: 12.5 mg/kg/injection, schedule: Q01DX001 (ip), vehicle: Klucel (hydroxypropylcellulose) (HPC) 106 % of control | dose: 12.5 mg/kg/injection, schedule: Q01DX009 (ip), vehicle: Klucel (hydroxypropylcellulose) (HPC) 121 % of control | dose: 12.5 mg/kg/injection, schedule: Q04DX003 (ip), vehicle: Klucel (hydroxypropylcellulose) (HPC) 94 % of control and 103 % of control | dose: 18.75 mg/kg/injection, schedule: Q01DX001 (ip), vehicle: Klucel (hydroxypropylcellulose) (HPC) 91 % of control | dose: 25.0 mg/kg/injection, schedule: Q01DX001 (ip), vehicle: Klucel (hydroxypropylcellulose) (HPC) 104 % of control and 119 % of control and 123 % of control | dose: 25.0 mg/kg/injection, schedule: Q01DX009 (ip), vehicle: Klucel (hydroxypropylcellulose) (HPC) 91 % of control | dose: 25.0 mg/kg/injection, schedule: Q04DX003 (ip), vehicle: Klucel (hydroxypropylcellulose) (HPC) 107 % of control and 117 % of control | dose: 37.5 mg/kg/injection, schedule: Q01DX001 (ip), vehicle: Klucel (hydroxypropylcellulose) (HPC) 103 % of control | dose: 50.0 mg/kg/injection, schedule: Q01DX001 (ip), vehicle: Klucel (hydroxypropylcellulose) (HPC) 123 % of control | [1] 92 % of control | dose: 50.0 mg/kg/injection, schedule: Q04DX003 (ip), vehicle: Klucel (hydroxypropylcellulose) (HPC) 97 % of control and 116 % of control | [2] 91 % of control | dose: 100.0 mg/kg/injection, schedule: Q01DX001 (ip), vehicle: Klucel (hydroxypropylcellulose) (HPC) 110 % of control and 115 % of control and 121 % of control | [3] 116 % of control | [4] 100 % of control

CCCCN1CSC(=S)N(CCCC)C1
inactive: dose: 100.0 mg/kg/injection, schedule: Q04DX002 (ip), vehicle: saline with Tween-80 100 % of control | dose: 200.0 mg/kg/injection, schedule: Q04DX002 (ip), vehicle: saline with Tween-80 93 % of control | dose: 400.0 mg/kg/injection, schedule: Q04DX002 (ip), vehicle: saline with Tween-80 105 % of control

O=C(NCCNC(=O)C(Cl)(Cl)Cl)C(Cl)(Cl)Cl
inactive: [5] 89 % of control | [6] 91 % of control | [7] 87 % of control

c1ccc(-c2nc(N=C3N=c4ccccc4=N3)[nH]c2-c2ccccc2)cc1
inactive: [3] 112 % of control | [8] 100 % of control | dose: 400.0 mg/kg/injection, schedule: Q04DX003 (ip), vehicle: Klucel (hydroxypropylcellulose) (HPC) 96 % of control

C=CCNC(=O)OCC
inactive: [9] 100 % of control | [10] 95 % of control | [11] 100 % of control

C1=C(c2ccccc2)CCC1
inactive: [1] 97 % of control | [5] 97 % of control | [3] 97 % of control | [6] 100 % of control | [8] 101 % of control

CCCC(=O)c1c(C)cc(C)cc1C
inactive: [5] 97 % of control | [6] 108 % of control | [7] 97 % of control

O=C(O)[C@H]1CC2CCC1C2 (stereo partly drawn)
inactive: [9] 98 % of control | [10] 102 % of control | [11] 93 % of control

OCCOc1ccc(-c2ccccc2)cc1
inactive: dose: 75.0 mg/kg/injection, schedule: Q04DX002 (ip), vehicle: Klucel (hydroxypropylcellulose) (HPC) 101 % of control | dose: 150.0 mg/kg/injection, schedule: Q04DX002 (ip), vehicle: Klucel (hydroxypropylcellulose) (HPC) 105 % of control | dose: 300.0 mg/kg/injection, schedule: Q04DX002 (ip), vehicle: Klucel (hydroxypropylcellulose) (HPC) 108 % of control

O=c1[nH]c2ccccc2o1
inactive: [2] 101 % of control | [4] 100 % of control | dose: 200.0 mg/kg/injection, schedule: Q04DX002 (ip), vehicle: saline 92 % of control | dose: 300.0 mg/kg/injection, schedule: Q01DX001 (ip), vehicle: Klucel (hydroxypropylcellulose) (HPC) 103 % of control | dose: 400.0 mg/kg/injection, schedule: Q04DX002 (ip), vehicle: saline 114 % of control
